Values quoted from earlier work as cited in patent US20040071803A1, “Process for preparation of anti-diabetic compositions from banyan bark” (priority 2002, published 2004).

Assays:
[1] = test system: alloxan induced diabetic rats; settings: single dose of 250 mg/kg or long term 100 mg/Kg/day; mild but not severe diabetes (Cherian et. al. 1992)
[2] = test system: alloxan diabetic rabbits

| Molecule | Antidiabetic effect in alloxan induced diabetic rats [1] | Effect on severely diabetic rabbits ([2]; fasting blood glucose (FBG) of 250 mg/dl or above (Augusti 1975)) | Hypoglycemic activity relative to tolbutamide ([2]; normal and mildly diabetic rabbits (Augusti 1975)) |
| --- | --- | --- | --- |
| CC1OC(Oc2cc3c(O)cc(O)cc3[o+]c2-c2ccc(O)cc2)C(O)C(O)C1O (stereo not drawn) [pelargonidin 3-0-α-rhamnoside] | antidiabetic effect |  |  |
| Leucocyanidin 3-0-β D-galactosyl cellobioside | antidiabetic effect |  |  |
| bengalinoside |  | did not have any effect | half as active as tolbutamide |
